Measured values as given in ChEMBL document CHEMBL3232736, “Antiproliferative activities of halogenated thieno[3,2-d]pyrimidines” (Bioorg Med Chem, 2014).
Active and inactive are the calls of the source. The rule behind the calls is not given here.

Tests used:
L1210 = assay: Cytotoxicity against mouse L1210 cells assessed as reduction in cell number after 48 hrs by cell counting assay; assay type: functional, cell-based; details: L1210, 48 h
CCRF-CEM = assay: Cytotoxicity against human CCRF-CEM cells assessed as reduction in cell number after 72 hrs by cell counting assay; assay type: functional, cell-based
HeLa = assay: Cytotoxicity against human HeLa cells assessed as reduction in cell number after 72 hrs by cell counting assay; assay type: functional, cell-based
Cryptococcus neoformans [1] = assay: Antifungal activity against Cryptococcus neoformans ATCC 66031 assessed as growth inhibition at 100 uM after 48 hrs by microbroth dilution method; assay type: functional
Staphylococcus aureus = assay: Antibacterial activity against methicillin-resistant Staphylococcus aureus subsp. aureus ATCC 43300 assessed as growth inhibition at 100 uM after 16 to 20 hrs by microbroth dilution method; assay type: functional, organism-based
Bacillus spizizenii = assay: Antibacterial activity against Bacillus subtilis ATCC 6633 assessed as growth inhibition at 100 uM after 16 to 20 hrs by microbroth dilution method; assay type: functional
Escherichia coli = assay: Antibacterial activity against Escherichia coli ATCC 25922 assessed as growth inhibition at 100 uM after 16 to 20 hrs by microbroth dilution method; assay type: functional, organism-based
Cryptococcus neoformans [2] = assay: Antifungal activity against Cryptococcus neoformans VANC-R265 assessed as growth inhibition at 100 uM after 48 hrs by microbroth dilution method; assay type: functional
Cryptococcus neoformans [3] = assay: Antifungal activity against Cryptococcus neoformans JEC20 assessed as growth inhibition at 100 uM after 48 hrs by microbroth dilution method; assay type: functional
Cryptococcus neoformans [4] = assay: Antifungal activity against Cryptococcus neoformans B4546 assessed as growth inhibition at 100 uM after 48 hrs by microbroth dilution method; assay type: functional
Candida albicans = assay: Antifungal activity against Candida albicans ATCC 10231 assessed as growth inhibition at 100 uM after 16 to 20 hrs by microbroth dilution method; assay type: functional

| SMILES | IC50 (L1210) [µM] | IC50 (CCRF-CEM) [µM] | IC50 (HeLa) [µM] | inhibition (Cryptococcus neoformans [1]) | inhibition (Staphylococcus aureus) | inhibition (Bacillus spizizenii) | inhibition (Escherichia coli) | inhibition (Cryptococcus neoformans [2]) | inhibition (Cryptococcus neoformans [3]) | inhibition (Cryptococcus neoformans [4]) | inhibition (Candida albicans) |
| --- | --- | --- | --- | --- | --- | --- | --- | --- | --- | --- | --- |
| COc1nc(OC)c2scc([C@H]3C[C@H](O)[C@@H](CO)O3)c2n1 | > 250 | > 250 | > 250 | – | – | – | – | – | – | – | – |
| COc1nc(OC)c2scc([C@H]3CC(=O)[C@@H](CO)O3)c2n1 | > 250 | > 250 | > 250 | – | – | – | – | – | – | – | – |
| COc1nc(OC)c2scc(Br)c2n1 | > 250 | ≥ 250 | 203 | – | – | – | – | – | – | – | – |
| COc1nc(OC)c2scc([C@H]3C[C@H](OC(C)=O)[C@@H](COC(C)=O)O3)c2n1 | > 250 | > 250 | > 250 | – | – | – | – | – | – | – | – |
| Clc1nc(-n2cncn2)c2sccc2n1 | > 250 | > 250 | > 250 | – | – | – | – | – | – | – | – |
| Nc1nc(Cl)nc2c(Br)csc12 | 150 | 109 | 96 | – | – | – | – | – | – | – | – |
| Clc1ncc2sccc2n1 | > 250 | > 250 | > 250 | inactive | inactive | inactive | inactive | inactive | inactive | inactive | inactive |
| Nc1nc(Cl)nc2ccsc12 | > 250 | > 250 | > 250 | – | – | – | – | – | – | – | – |
| O=c1[nH]c(=O)c2sccc2[nH]1 | > 250 | > 250 | > 250 | – | – | – | – | – | – | – | – |
